# Measured values taken from patent US20130196986A1 (priority 2010, published 2013).
# Biological target: T1, P2X7 receptor (Homo sapiens, UniProt Q99572)
# T1 construct: stably expressing the full length P2X7 receptor; expressed in transfected cells
# T1 sequence (Q99572 1-595): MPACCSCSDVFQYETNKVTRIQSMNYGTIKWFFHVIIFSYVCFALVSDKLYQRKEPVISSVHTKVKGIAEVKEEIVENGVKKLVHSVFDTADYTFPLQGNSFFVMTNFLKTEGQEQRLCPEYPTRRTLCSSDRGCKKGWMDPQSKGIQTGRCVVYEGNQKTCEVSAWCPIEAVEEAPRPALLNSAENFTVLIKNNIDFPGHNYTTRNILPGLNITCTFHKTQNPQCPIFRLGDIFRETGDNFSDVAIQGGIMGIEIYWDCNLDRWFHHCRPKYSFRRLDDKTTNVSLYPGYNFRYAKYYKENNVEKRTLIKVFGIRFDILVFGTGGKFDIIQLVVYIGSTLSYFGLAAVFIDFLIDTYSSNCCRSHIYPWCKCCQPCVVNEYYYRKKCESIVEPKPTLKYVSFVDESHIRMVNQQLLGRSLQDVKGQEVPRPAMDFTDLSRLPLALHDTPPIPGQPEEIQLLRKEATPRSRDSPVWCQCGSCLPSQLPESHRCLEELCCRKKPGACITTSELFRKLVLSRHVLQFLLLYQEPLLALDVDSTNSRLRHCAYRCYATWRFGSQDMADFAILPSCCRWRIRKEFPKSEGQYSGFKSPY
# Assay: Ca++ flux assay (FLIPR) in P2X7-HEK-293 cell line stably expressing the full length P2X7 receptor, Bz-ATP activation
# Assay type: cell-based
# Settings: P2X7-HEK-293 cells; agonist Bz-ATP; fluorescence as total area over 90 seconds; read-out: P2X7 Ca Flux hu IC50
# Protocol: The ability of Triazolopyrazinone Compounds to inhibit P2X7 function can be determined in Ca^++ flux assay using a P2X7-HEK-293 cell line stably expressing the full length P2X7 receptor. The assay protocol is as described in Cheewatrakoolpong et al., Biochem. Biophys. Res. Commun. 332:17-27 (2005) with minor modification, and is as summarized hereinafter. Briefly, cells were plated in poly-D-lysine-coated wells, and incubated at 37° C. for 24 hours. Cells were then incubated for 1 hour with a loading buffer which contains a dye sensitive to changes in Ca^++ concentration (lx Calcium Plus no wash dye from Molecular Devices, Sunnyvale, Calif.). The test compounds were added to the wells in the dye loading step. Plates containing the wells were transferred to a Fluorometric Imaging Plate Reader (Molecular Devices, Sunnyvale, Calif.). The cells were activated by the addition of the P2X7 receptor agonist 2′(3) —O-(4-benzoylbenzoyl)adenosine 5′-triphosphate (Bz-ATP from Sigma-Aldrich, St. Louis, Mo.), and the fluorescence was monitored for 90 seconds. The fluorescent signal was determined as the total area over the 90 second run time. Using this protocol, representative Triazolopyrazinone Compounds, compounds 1471 were tested. Tables 3 to 6 show the concentration at which 50% of the maximum response in the Ca^++ was inhibited (IC50) for each of the test compounds.
row,Structure (SMILES),IC50
1,"Cc1ccccc1CSc1nnc2c(=O)n(-c3cccc(C(F)(F)F)c3C)ccn12 [Compound 57, 7-(2-methyl-3-(trifluoromethyl)phenyl)-3-(2-methylbenzylthio)-[1,2,4]triazolo[4,3-a]pyrazin-8(7H)-one]",86.4 nM
2,"O=c1c2nnc(SCc3ccccc3)n2ccn1-c1cccc(C(F)(F)F)c1F [Compound 59, 3-(benzylthio)-7-(2-fluoro-3-(trifluoromethyl)phenyl)-[1,2,4]triazolo[4,3-a]pyrazin-8(7H)-one]",457 nM
3,"O=c1c2nnc(SCc3ccccc3)n2ccn1-c1cccc(C(F)(F)F)c1Cl [Compound 61, 3-(benzylthio)-7-(2-chloro-3-(trifluoromethyl)phenyl)-[1,2,4]triazolo[4,3-a]pyrazin-8(7H)-one]",44.9 nM
4,"Cc1c(Cl)cccc1-n1ccn2c(SCc3cccc(Cl)c3F)nnc2c1=O [Compound 63, 3-(3-chloro-2-fluorobenzylthio)-7-(3-chloro-2-methylphenyl)-[1,2,4]triazolo[4,3-a]pyrazin-8(7H)-one]",2540 nM
5,"Cc1c(Cl)cccc1-n1ccn2c(SCc3cc(Cl)ccc3F)nnc2c1=O [Compound 64, 3-(5-chloro-2-fluorobenzylthio)-7-(3-chloro-2-methylphenyl)-[1,2,4]triazolo[4,3-a]pyrazin-8(7H)-one]",755 nM
6,"O=c1c2nnc(SCc3cc(Cl)cc(Cl)c3)n2ccn1-c1cccc(Cl)c1Cl [Compound 67, 3-(3,5-dichlorobenzylthio)-7-(2,3-dichlorophenyl)-[1,2,4]triazolo[4,3-a]pyrazin-8(7H)-one]",168 nM
7,"Cc1c(Cl)cccc1-n1ccn2c(SCc3ccccc3Br)nnc2c1=O [Compound 71, 3-(2-bromobenzylthio)-7-(3-chloro-2-methylphenyl)-[1,2,4]triazolo[4,3-a]pyrazin-8(7H)-one]",142 nM
8,"Cc1c(Cl)cccc1-n1ccn2c(SCc3cc(Cl)ccc3Cl)nnc2c1=O [Compound 72, 7-(3-chloro-2-methylphenyl)-3-(2,5-dichlorobenzylthio)-[1,2,4]triazolo[4,3-a]pyrazin-8(7H)-one]",3150 nM
9,"Cc1c(Cl)cccc1-n1ccn2c(SCc3ccccc3I)nnc2c1=O [Compound 74, 7-(3-chloro-2-methylphenyl)-3-(2-iodobenzylthio)-[1,2,4]triazolo[4,3-a]pyrazin-8(7H)-one]",264 nM
10,"Cc1c(Cl)cccc1-n1ccn2c(SCc3cccc(I)c3)nnc2c1=O [Compound 77, 7-(3-chloro-2-methylphenyl)-3-(3-iodobenzylthio)-[1,2,4]triazolo[4,3-a]pyrazin-8(7H)-one]",462 nM
11,"COc1cc(CSc2nnc3c(=O)n(-c4cccc(Cl)c4C)ccn23)cc(OC)c1 [Compound 79, 7-(3-chloro-2-methylphenyl)-3-(3,5-dimethoxybenzylthio)-[1,2,4]triazolo[4,3-a]pyrazin-8(7H)-one]",1330 nM
12,"O=c1c2nnc(SCc3ccccc3)n2ccn1-c1cccc(Cl)c1F [Compound 82, 3-(benzylthio)-7-(3-chloro-2-fluorophenyl)-[1,2,4]triazolo[4,3-a]pyrazin-8(7H)-one]",374 nM
13,"Cc1c(Cl)cccc1-n1ccn2c(SCc3cccc(OC(F)(F)F)c3)nnc2c1=O [Compound 85, 7-(3-chloro-2-methylphenyI)-3-(3-(trifluoromethoxy)benzylthio)-[1,2,4]triazolo[4,3-a]pyrazin-8(7H)-one]",503 nM

# Now from value to compound:
row,IC50,Structure (SMILES)
1,167 nM,"Cc1c(-n2ccn3c(SCc4ccccc4F)nnc3c2=O)cccc1C(F)(F)F [Compound 56, 3-(2-fluorobenzylthio)-7-(2-methyl-3-(trifluoromethyl)phenyl)-[1,2,4]triazolo[4,3-a]pyrazin-8(7H)-one]"
2,427 nM,"O=c1c2nnc(SCc3cc(Cl)cc(Cl)c3)n2ccn1-c1cccc(C(F)(F)F)c1F [Compound 58, 3-(3,5-dichlorobenzylthio)-7-(2-fluoro-3-(trifluoromethyl)phenyl)-[1,2,4]triazolo[4,3-a]pyrazin-8(7H)-one]"
3,91.4 nM,"O=c1c2nnc(SCc3cc(Cl)cc(Cl)c3)n2ccn1-c1cccc(C(F)(F)F)c1Cl [Compound 60, 7-(2-chloro-3-(trifluorornethyl)phenyl)-3-(3,5-dichlorobenzylthio)-[1,2,4]triazolo[4,3-a]pyrazin-8(7H)-one]"
4,57.5 nM,"Cc1c(-n2ccn3c(SC(C)c4ccccc4)nnc3c2=O)cccc1C(F)(F)F (stereo not shown) [Compound 62, 7-(2-methyl-3-(trifluoromethyl)phenyl)-3-(1-phenylethylthio)-[1,2,4]triazolo[4,3-a]pyrazin-8(7H)-one]"
5,189 nM,"O=c1c2nnc(SCc3ccccc3)n2ccn1-c1cccc(F)c1Cl [Compound 65, 3-(benzylthio)-7-(2-chloro-3-fluorophenyl)-[1,2,4]triazolo[4,3-a]pyrazin-8(7H)-one]"
6,324 nM,"Cc1c(Cl)cccc1-n1ccn2c(SCc3cccc(Cl)c3Cl)nnc2c1=O [Compound 66, 7-(3-chloro-2-methylphenyl)-3-(2,3-dichlorobenzylthio)-[1,2,4]triazolo[4,3-a]pyrazin-8(7H)-one]"
7,475 nM,"Cc1c(Cl)cccc1-n1ccn2c(SCc3c(F)cccc3C(F)(F)F)nnc2c1=O [Compound 68, 7-(3-chloro-2-methylphenyl)-3-(2-fluoro-6-(trifluoromethyl)benzylthio)-[1,2,4]triazolo[4,3-a]pyrazin-8(7H)-one]"
8,188 nM,"Cc1c(-n2ccn3c(SCc4cc(Cl)cc(Cl)c4)nnc3c2=O)cccc1C(F)(F)F [Compound 69, 3-(3,5-dichlorobenzylthio)-7-(2-methyl-3-(trifluoromethyl)phenyl)-[1,2,4]triazolo[4,3-a]pyrazin-8(7H)-one]"
9,112 nM,"Cc1c(Cl)cccc1-n1ccn2c(SCc3ccccc3OC(F)(F)F)nnc2c1=O [Compound 70, 7-(3-chloro-2-methylphenyl)-3-(2-(trifluoromethoxy)benzylthio)-[1,2,4]triazolo[4,3-a]pyrazin-8(7H)-one]"
10,439 nM,"Cc1cccc(CSc2nnc3c(=O)n(-c4cccc(Cl)c4C)ccn23)c1 [Compound 73, 7-(3-chloro-2-methylphenyl)-3-(3-methylbenzylthio)-[1,2,4]triazolo[4,3-a]pyrazin-8(7H)-one]"
11,280 nM,"Cc1c(Cl)cccc1-n1ccn2c(SCc3c(Cl)cccc3Cl)nnc2c1=O [Compound 75, 7-(3-chloro-2-methylphenyl)-3-(2,6-dichlorobenzylthio)-[1,2,4]triazolo[4,3-a]pyrazin-8(7H)-one]"
12,597 nM,"Cc1c(Cl)cccc1-n1ccn2c(SCc3cc(Cl)cc(C(F)(F)F)c3)nnc2c1=O [Compound 78, 7-(3-chloro-2-methylphenyl)-3-(3-chloro-5-(trifluoromethyl)benzylthio)-[1,2,4]triazolo[4,3-a]pyrazin-8(7H)-one]"
13,533 nM,"COc1c(Cl)cccc1-n1ccn2c(SCc3ccccc3)nnc2c1=O [Compound 80, 3-(benzylthio)-7-(3-chloro-2-methoxyphenyl)-[1,2,4]triazolo[4,3-a]pyrazin-8(7H)-one]"
14,946 nM,"O=c1c2nnc(SCc3ccccc3)n2ccn1-c1ccccc1Cl [Compound 81, 3-(benzylthio)-7-(2-chlorophenyl)-[1,2,4]triazolo[4,3-a]pyrazin-8(7H)-one]"
15,855 nM,"Cc1c(Br)cccc1-n1ccn2c(SCc3cc(Cl)cc(Cl)c3)nnc2c1=O [Compound 83, 7-(3-brorno-2-methylphenyl)-3-(3,5-dichlorobenzylthio)-[1,2,4]triazolo[4,3-a]pyrazin-8(7H)-one]"
